Measured values: US5306824A, “Biotinylated isocoumarins” (Georgia Tech Research Corporation, priority 1992, dated 1994)

Columns and labels:
trypsin = molecular target: T1, trypsin (Bos taurus, UniProt P00760); assay: Inactivation of trypsin by biotin-isocoumarins (incubation method); type: biochemical; conditions: inhibitor 41-42 μM; 0.1 M Hepes, 0.01 M CaCl2, pH 7.5, 25° C.; read-out: kobs/[I] Trypsin
T1 sequence (P00760 24-246): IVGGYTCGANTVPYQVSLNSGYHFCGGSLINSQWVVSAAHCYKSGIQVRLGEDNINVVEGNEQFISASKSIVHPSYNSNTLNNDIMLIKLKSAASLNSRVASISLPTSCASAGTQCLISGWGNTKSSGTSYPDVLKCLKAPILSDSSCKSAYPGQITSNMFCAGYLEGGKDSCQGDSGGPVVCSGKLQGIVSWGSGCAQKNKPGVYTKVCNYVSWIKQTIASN
Experimental: (§1) Inactivation rates of serine proteases by substituted isocoumarins were measured by the incubation method. An aliquot of inhibitor (25 or 50 μl) in Me2 SO was added to a buffered enzyme solution (0.01-2.3 μM) to initiate the inactivation. Aliquots (50-100 μl) were withdrawn at various intervals and the residual enzymatic activity was measured. Me2 SO concentration in the reaction mixture was 8-12% (v/v). 0.1M Hepes, 0.5M NaCl, pH 7.5 buffer was utilized for the assays of chymotrypsin, cathepsin G (cat G), porcine pancreatic elastase (PPE), human leukocyte elastase (HLE) and rat granule serine proteases. 0.1M Hepes, 0.01M CaCl2, pH 7.5 buffer was utilized for the assays of trypsin and human recombinant (HR) granzyme A. The inhibitor concentrations are shown in the Tables I and II. Peptide nitroanilides with appropriate sequence were used as substrates for various serine proteases. All peptide 4-nitroanilide hydrolysis was measured at 410 nm (ε410 =8800M^-1 cm^-1; Erlanger et al., Arch. Biochem. Biophys. 95, pp 271-278 (1961), incorporated herein by reference). Peptide thioester hydrolysis rates were measured with assay mixtures containing 4,4'-dithiodipyridine (ε324 =19800M^-1 cm^-1; Grasetti & Murray, Arch. Biochem. Biophys. 119, pp. 41-49 (1967), incorporated herein by reference). First order inactivation rate constant (kobs) were obtained from plots of ln (vt /vo) vs time, and the correlation coefficients were greater than 0.98.
(§2) ^a Inhibition was measured in 0.1 M Hepes, 0.5 M NaCl (or 0.01 M
(§3) CaCl2), pH 7.5 buffer, 5-10% Me2 SO and at 25° C.
(§4) ZGlu-Phe-Arg-NA (0.032 mM) was a substrate for trypsin. ZArg-SBzl (0.120
^f Inhibitor concentrations were 41-42 μM.

chymotrypsin [1] = molecular target: T2, chymotrypsin (Bos taurus, UniProt P00766); assay: Inactivation of chymotrypsin by biotin-isocoumarins (incubation method); type: biochemical, bovine; conditions: pH 7.5, inhibitor 20-400 μM; 0.1 M Hepes, 0.5 M NaCl, pH 7.5, 5-10% Me2SO, 25° C.; two values given for some compounds; read-out: kobs/[I] Chymotrypsin
Experimental: as §1, §2, §3
(§5) SucVal-Pro-NA (0.48 mM) was used as the substrate for chymotrypsin and ca
^b Inhibitor concentrations were 20-400 μM.

[2] = molecular target: porcine pancreatic elastase (PPE) (Sus scrofa, UniProt P00772); assay: Inactivation of porcine pancreatic elastase by biotin-isocoumarins (incubation method); type: biochemical; conditions: inhibitor 38-78 μM; pH 7.5, 25° C.; NI = no inhibition after 10 min of incubation; read-out: kobs/[I] PPE
Chain of porcine pancreatic elastase (PPE) (P00772 27-266): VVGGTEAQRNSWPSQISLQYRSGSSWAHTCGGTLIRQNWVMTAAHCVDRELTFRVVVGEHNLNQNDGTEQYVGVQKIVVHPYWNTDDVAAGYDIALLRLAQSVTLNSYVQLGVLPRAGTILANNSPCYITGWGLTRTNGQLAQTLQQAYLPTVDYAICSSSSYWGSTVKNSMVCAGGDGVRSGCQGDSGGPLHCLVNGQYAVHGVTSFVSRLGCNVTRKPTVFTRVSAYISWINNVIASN
Experimental: as §1, §2, §3
(§6) G. MeOSuc-Ala-Ala-Pro-Val-NA (0.24-0.47 mM) and SucAla-Ala-Ala-NA
(§7) (0.29-0.48 mM) were used as the substrate for HLE and PPE respectively.
^e Inhibitor concentrations were 38-78 μM.
(§8) ^h No inhibition after 10 min of incubation of inhibitor and enzyme.

cathepsin G (cat G) = molecular target: T3, cathepsin G (cat G) (Homo sapiens, UniProt P08311); assay: Inactivation of cathepsin G by biotin-isocoumarins (incubation method); type: biochemical; conditions: inhibitor 75-400 μM, pH 7.5, 25° C.; for kinact/KI: NI = no inhibition after 10 min of incubation, read-out: kobs/[I] Cat. G
T3 sequence (P08311 21-255): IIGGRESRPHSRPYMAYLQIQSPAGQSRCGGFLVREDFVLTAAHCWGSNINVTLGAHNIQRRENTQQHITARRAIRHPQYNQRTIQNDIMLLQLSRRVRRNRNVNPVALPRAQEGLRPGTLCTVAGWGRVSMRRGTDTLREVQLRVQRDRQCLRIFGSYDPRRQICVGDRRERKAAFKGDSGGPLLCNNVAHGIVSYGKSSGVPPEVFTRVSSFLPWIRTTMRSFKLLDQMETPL
Experimental: as §1, §2, §3, §5, §6
^c Inhibitor concentrations were 75-400 μM.
as §8
(§9) ^i Percentage of inhibition after 10 min of incubation of inhibitor

PPE [3] = molecular target: T4, PPE (Sus scrofa, UniProt P00772); assay: Effect of streptavidin and avidin on reactivation of inhibited PPE; type: biochemical, porcine; conditions: monitored for two days
T4 sequence (P00772 27-266): as the sequence (P00772 27-266) above
Experimental: (§10) ^a Percentage of regained enzymatic activity was measured in 0.1 M
(§11) Hepes, 0.5 M NaCl, pH 7.5 buffer, 8% Me2 SO and at 25° C.
(§12) Excess inhibitor was removed from enzymeinhibitor mixture by
(§13) centrifugation twice with Amicon microconcentrator10. Then 3-4 units of
(§14) avidin or strepavidin was added and enzymatic activity was monitored for […]

PPE [4] = molecular target: T4, PPE; assay: Reactivation of inhibited PPE in buffer and with NH2OH; type: biochemical, porcine
Experimental: (§15) ^a Inhibition was performed at 0.1 M Hepes, 0.5 M NaCl, pH 7.5 buffer
(§16) 10% Me2 SO and 25° C. Reactivation was carried out in the
(§17) presence of 0.4 M of NH2 OH, and occurred immediately after the
(§18) ^b Enzyme activity was measured after removal of excess inhibitor by
(§19) centrifugation at 0° C. with centricon10 microconcentrator and
(§20) staying at 25° C. for two days.

[5] = molecular target: T5, human leukocyte elastase (HLE) (Homo sapiens, UniProt P08246); assay: Inactivation of human leukocyte elastase by biotin-isocoumarins (incubation method); type: biochemical; conditions: inhibitor 1.6-210 μM; pH 7.5, 25° C.; read-out: kobs/[I] HLE
T5 sequence (P08246 30-267): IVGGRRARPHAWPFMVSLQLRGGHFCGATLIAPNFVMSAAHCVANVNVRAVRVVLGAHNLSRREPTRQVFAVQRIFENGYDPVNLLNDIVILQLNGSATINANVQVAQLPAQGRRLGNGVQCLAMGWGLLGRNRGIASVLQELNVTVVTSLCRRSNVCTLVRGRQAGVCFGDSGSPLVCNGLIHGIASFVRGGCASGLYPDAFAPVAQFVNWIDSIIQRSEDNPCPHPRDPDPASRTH
Experimental: as §1, §2, §3, §6, §7
^d Inhibitor concentrations were 1.6-210 μM.

Rat Granule Chymase [6] = assay: Inhibition of rat granule chymase; type: biochemical; conditions: [I] 0.078 mM; inhibition not time dependent; pH 7.5, 10% Me2SO, 25° C.
Experimental: as §1, with “First order inactivation rate constant (kobs) were obtained from plots of ln (vt /vo) vs time, and the correlation coefficients were greater than 0.98.” left out
(§21) ^a Inhibition was measured in 0.1 M Hepes, 0.5 M NaCl, pH 7.5 buffer, […]

chymotrypsin [7] = molecular target: T2, chymotrypsin; assay: Effect of streptavidin and avidin on reactivation of inhibited chymotrypsin; type: biochemical, bovine; conditions: monitored for two days
Experimental: as §10, §11, §12, §13, §14

Rat Granule Chymase [8] = assay: Reactivation of inhibited rat granule chymase with NH2OH; type: biochemical; conditions: 0.4 M NH2OH, immediately after addition
Experimental: as §15, §16
presence of 0.4 M of NH2 OH, and occurred immediately after the […]

Rat Granule Tryptase = assay: Inhibition of rat granule tryptase; type: biochemical; conditions: [I] 0.078 mM or 0.2 mM as per table line; pH 7.5, 10% Me2SO, 25° C.
Experimental: as §1, with “First order inactivation rate constant (kobs) were obtained from plots of ln (vt /vo) vs time, and the correlation coefficients were greater than 0.98.” left out
as §21

chymotrypsin [9] = molecular target: T2, chymotrypsin; assay: Reactivation of inhibited chymotrypsin in buffer and with NH2OH; type: biochemical, bovine
Experimental: as §15, §16, §17, §18, §19, §20

[10] = molecular target: T6, human recombinant (HR) granzyme A (Homo sapiens, UniProt P12544); assay: Inactivation of human recombinant granzyme A by biotin-isocoumarins (incubation method); type: biochemical; conditions: inhibitor 160-210 μM, pH 7.5, 25° C.
T6 sequence (P12544 29-262): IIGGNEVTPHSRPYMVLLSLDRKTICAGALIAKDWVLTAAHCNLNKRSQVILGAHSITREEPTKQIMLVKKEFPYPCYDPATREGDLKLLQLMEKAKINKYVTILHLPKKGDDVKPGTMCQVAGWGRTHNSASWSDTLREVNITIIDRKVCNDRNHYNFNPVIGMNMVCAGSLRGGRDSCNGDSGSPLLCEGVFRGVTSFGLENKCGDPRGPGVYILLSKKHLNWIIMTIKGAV
Experimental: as §1, §2, §3, §4
mM) was a substrate for human recombinant (HR) granzyme A.
^g Inhibitor concentrations were 160-210 μM.
as §8, §9

PPE [11] = molecular target: T4, PPE; assay: Elution of inhibited PPE from avidin-agarose column with NH2OH; type: biochemical, porcine
Experimental: Elution of inhibited PPE by 7-[6-(6-biotinylaminocaproyl)aminocaproyl]amino-4-chloro-3-methoxyisocoumarin from avidin-agarose column with NH2 OH.
PPE (1 mg, […]) was inhibited by biotinylated isocoumarin (0.5 mmole) in 0.1M Hepes, 0.5M NaCl, pH 7.5 buffer at 25° C. for 10 min, 7% of residual enzyme activity was found. Excess of inhibitors was removed by Sephadex G-25 column and the inhibited PPE was eluted with 0.1M acetate, 0.5M NaCl, pH 5.0 buffer and had 16% of enzyme activity. This inhibited enzyme solution was then applied on the avidin-agarose column and 34% of protein went through (measured by optical density at 280 nm). The column was washed with pH 5.0 acetate buffer, then eluted with 0.1M Hepes, 0.5M NaCl, and 0.5M NH2 OH, pH 7.5 buffer and 37% of protein was eluted out (measured by OD280) from the column. In these protein fractions, 40% of PPE activity was detected.

[12] = 3-4 units streptavidin, 2880 min
[13] = 0.4 M NH2OH, immediately after addition

Structure (SMILES): CCCOc1oc(=O)c2cc(NC(=O)CCCC[C@@H]3SC[C@@H]4NC(=O)N[C@@H]43)ccc2c1Cl [Compound 2, 7-biotinylamino-4-chloro-3-propoxyisocoumarin]
- kinact/KI (trypsin): 2.2 M⁻¹ s⁻¹
- kinact/KI (chymotrypsin [1]): 65 M⁻¹ s⁻¹
- kinact/KI [2]: 470 M⁻¹ s⁻¹
- kinact/KI (cathepsin G (cat G)): 6.7 M⁻¹ s⁻¹
- % of Regained Enzyme Activity, PPE, +Avidin (PPE [3]; 3-4 units avidin, 2880 min): 32%
- % of Regained Enzyme Activity, PPE, +Streptavidin (PPE [3]; [12]): 51%
- % of Regained Enzyme Activity, PPE, Buffer (PPE [3]; pH 7.5, 8% Me2SO, 25° C.): 35%
- % of Enzyme Activity Reactivated, PPE +NH2OH (PPE [4]; [13]): 98%
- % of Enzyme Activity Reactivated, PPE in buffer (PPE [4]; after removal of excess inhibitor, 25° C. for two days, 2880 min): 35%
- kinact/KI [5]: 19900 M⁻¹ s⁻¹

Structure (SMILES): O=C(CCCC[C@@H]1SC[C@@H]2NC(=O)N[C@@H]21)NCCCCCC(=O)Nc1ccc2c(Cl)c(OCCc3ccccc3)oc(=O)c2c1 [Compound 3, 7-(6-biotinylaminocaproyl)amino-4-chloro-3-(2-phenylethoxy)isocoumarin]
- kinact/KI (trypsin): 1 M⁻¹ s⁻¹
- Rat Granule Chymase % of inhibition (Rat Granule Chymase [6]): 30-50%
- % of Regained Enzyme Activity, Chymotrypsin, +Streptavidin (chymotrypsin [7]; [12]): 39%
- % of Regained Enzyme Activity, Chymotrypsin, Buffer (chymotrypsin [7]; pH 7.5, 8% Me2SO, 25° C.): 15%
- % of Enzyme Activity Reactivated, Rat granule chymase +NH2OH (Rat Granule Chymase [8]): 30-50%
- Rat Granule Tryptase kobs/[I] (Rat Granule Tryptase): 6 to 12 M⁻¹ s⁻¹
- % of Enzyme Activity Reactivated, Chymotrypsin +NH2OH (chymotrypsin [9]; [13]): 100%
- % of Enzyme Activity Reactivated, Chymotrypsin in buffer (chymotrypsin [9]; after removal of excess inhibitor, 25° C. for two days): 10%
- kinact/KI [5]: 670 M⁻¹ s⁻¹

Structure (SMILES): COc1oc(=O)c2cc(NC(=O)CCCCCNC(=O)CCCCCNC(=O)CCCCC3SCC4NC(=O)NC43)ccc2c1Cl (centres unmarked) [Compound 6, 7-[6-(6-biotinylaminocaproyl)aminocaproyl]-amino-4-chloro-3-methoxyisocoumarin]
- Percentage of inhibition of HR Granzyme A after 10 min of incubation of inhibitor and enzyme [10]: 5%
- kinact/KI (cathepsin G (cat G)): 2.2 M⁻¹ s⁻¹
- enzyme activity of inhibited PPE after Sephadex G-25 removal of excess inhibitor (PPE [11]; eluted with 0.1M acetate, 0.5M NaCl, pH 5.0): 16%
- PPE activity detected in eluted protein fractions (PPE [11]; fractions eluted with 0.5M NH2OH): 40%
- residual enzyme activity of PPE after inhibition (PPE [11]; pH 7.5 buffer, 25° C., 10 min): 7%
- kinact/KI [5]: 37500 M⁻¹ s⁻¹

Structure (SMILES): O=C(CCCCCNC(=O)CCCCC1SCC2NC(=O)NC21)NCCCCCC(=O)Nc1ccc2c(Cl)c(OCCc3ccccc3)oc(=O)c2c1 (centres unmarked) [Compound 7, 7-[6-(6-biotinylaminocaproyl)aminocaproyl]-amino-4-chloro-3-(2-phenylethoxy)-isocoumarin]
- kinact/KI [5]: 230 M⁻¹ s⁻¹

Structure (SMILES): O=C(CCCCC1SCC2NC(=O)NC21)NCCNC(=O)CNC(=O)Nc1ccc2c(Cl)c(OCCc3ccccc3)oc(=O)c2c1 (centres unmarked) [Compound 8, 7-biotin-NH(CH2)2 NH--COCH2 NHCONH-4-chloro-3-(2-phenylethoxy)isocoumarin]
- Percentage of inhibition of HR Granzyme A after 10 min of incubation of inhibitor and enzyme [10]: 18%
- Percentage of inhibition of Cat. G after 10 min of incubation of inhibitor and enzyme (cathepsin G (cat G); 10 min): 19%
- kinact/KI [5]: 6.6 M⁻¹ s⁻¹
